From US5981556A, “1,3-diazolino and 1,3-diazolidino heterocycles as useful nitric oxide synthase inhibitors” (G.D. Searle & Co., priority 1997, dated 1999)
Structures can show the parent of a compound that is named as a salt.

How the values were obtained:
[1] = tested on: endotoxin (LPS) induced rise in plasma nitrites; experiment: In Vivo Assay: plasma nitrites after endotoxin (Low Dose LPS); set-up: species or system Rats; details: plasma nitrites 5 hours post-treatment
Experimental: Rats were treated with an intraperitoneal injection of 10 mg/kg of endotoxin (LPS) with or without oral administration of the nitric oxide synthase inhibitors.

hnaNOS = hnaNOS (Homo sapiens, UniProt P29475); experiment: Citrulline Assay for Nitric Oxide Synthase, Human in vitro Enzyme Data, hnaNOS; format: biochemical
hecNOS = hecNOS (Homo sapiens, UniProt P29474); experiment: Citrulline Assay for Nitric Oxide Synthase, Human in vitro Enzyme Data, hecNOS; format: biochemical
hiNOS = hiNOS (Homo sapiens, UniProt P35228); experiment: Citrulline Assay for Nitric Oxide Synthase, Human in vitro Enzyme Data, hiNOS; format: biochemical

**Q.** `Cc1noc(=O)n1CCCC[C@H](N)C(=O)O` [Example 2, αS-amino-4,5-dihydro-3-methyl-5-oxo-1,2,4-oxadiazole-4-hexanoic acid, monohydrochloride] was tested. Which “Low Dose LPS in vivo Effective Dose (i.v.), inh.” value ([1]; i.v., 3 mg/kg/day) did it give?
**A.** 83%

**Q.** What about the “Low Dose LPS in vivo Effective Dose (p.o.), inh.” value ([1]; 3 mg/kg/day) of the same compound?
**A.** 39%

**Q.** And the “Low Dose LPS in vivo Effective Dose (p.o.), inh.” value ([1]; 10 mg/kg/day)?
**A.** 42%

**Q.** And the IC50 (hnaNOS)?
**A.** 159 µM

**Q.** What about the IC50 (hecNOS) of the same compound?
**A.** 1.14 mM

**Q.** What about the IC50 (hiNOS) of the same compound?
**A.** 138 µM
